The test system of one data set is protein. In words: Mizushima's Test (inhibition of protein hazing). Format: biochemical. As to the method: It was also possible to confirm the superiority of I over II in Mizushima's Test in which potent antiphlogistics are known to inhibit protein hazing directly proportional to their antiphlogistic potency (cf. Arch. int. Pharmacodyn. 149 (1964), 1, and 157 (1965), 115).
A DE50 of 0.07 mg/ml was measured for the sodium salt of I, in other words the level of protein hazing was inhibited by 50% at this concentration.

The nature of data set [1]: stability of the dissolved sodium salt in water or water/alcohol. The conditions noted are these: aqueous or aqueous-alcoholic solution. Format: physicochemical. The source says:
the free acid I can be converted into its salts in a manner known per se. Pharmacologically acceptable and conventional inorganic and organic bases can be considered for this purpose.

For another data set, the system named is kaolin oedema of the paw. In words: kaolin oedema of the paw of a rat. Format: in vivo. The conditions noted are these: for ED50: read-out: ED50 (dose which reduces the oedemas by half as compared with a control group).
Data set [2] deals with formalin oedema of the paw. Description: formalin oedema on the paw of a rat. Type of data set: in vivo. Conditions: once orally. The source says: (§1) Furthermore, with two other forms of inflammation, the inflammations produced with formalin and carrageenin on the paw of a rat, the oedema-inhibiting efficiency of I is stronger than that of II. […] These differences are also statistically significant.

For data set [3], the system named is carrageenin oedema of the paw. Description: carrageenin oedema on the paw of a rat. Type of data set: in vivo. The conditions noted are these: once orally.
Description: as §1
(In general: In the carrageenan paw model, swelling and tenderness develop within hours.)

Data set [4] relates to sulphydryl groups present in the serum. Description: Gerber method: reaction velocity of serum sulphydryl groups with 2,2'-dinitro-5,5-dithiobenzoic acid. Type of data set: biochemical. Conditions: concentration range 0.5 to 3 mMol/liter. From the text: Another characteristic test for determining the activity of non-steroid antiphlogistic substances is the method described by D. A. Gerber, N. Cohen and R. Giustra (cf. Biochem. Pharmacol. 16 (1967) 115) of influencing the physical-chemical behaviour of native protein, for example influencing the reaction velocity of the sulphydryl groups present in the serum with 2,2'-dinitro-5,5-dithiobenzoic acid. […] Since, according to Gerber et al, (loc. cit.), the percentage increase in reaction velocity is directly proportional to antiphlogistic activity, a greater activity of I by comparison with II can also be derived from this […] test; this applies above all in the lower concentration ranges (105:39) which come closest to the therapeutically attainable concentrations. In this case, too, the intact compound I can be shown to be the only active component.

The nature of data set [5]: acute oral toxicity (LD50), mouse. The conditions noted are these: in vivo, single oral administration, I given as sodium salt. As to the method: (§2) The toxicity data (LD50) of both compounds are as follows:
(§3) As regards I, after single oral administration of 55.5 mg/kg to the mouse and 38.9 mg/kg to the rat (using the sodium salt of I). The corresponding data for II are 18.4 and 24.5 mg/kg, respectively.

The nature of data set [6]: acute oral toxicity (LD50), rat. The conditions noted are these: in vivo, single oral administration, I given as sodium salt. As for the experimental part:
as §2, §3

For data set [7] the following is noted: cited from earlier work.
For data set [8] the following is noted: patients, relatively slight side effects and serious cases; cited from earlier work.
The test system of another data set is adjuvant arthritis. Description: arthritis produced in the rat with Freud's adjuvants. Format: in vivo.
Another data set deals with human albumin. In words: protein binding by the ultracentrifuging method. Type of data set: in vitro ADME. The conditions noted are these: same protein and equivalent substance concentration. From the text: Another interesting criterion for the activity of a pharmacon is protein binding. It is known that, in the serum, pharmacons are partly bound to protein and it is only those fractions that are not bound to protein which are responsible for the onset of biological activity. […] Where human albumin is used, the differences amount to about 60%, in other words, for the same protein concentration and an equivalent substance concentration, the values for non-protein-bound I are about 60% higher than those of II. The values found for II are consistent with those described in the literature (cf. E. Hvidberg et al, Eur. J. clin. Pharmacol. 4 (1972), 119). Accordingly, I can be expected to show greater activity in this test as well, i.e. a smaller dosage of I is required which can again be of advantage in toxicological terms.

Data set [9] in a line: resorption after oral administration in dogs. Type of data set: in vivo. The conditions noted are these: dog.

These results are taken from patent US3966956A, “[1-(P-Chlorobenzoyl)-5-methoxy-2-methyl-3-indole]acetoxyacetic acid and salts in treating inflammation” (Troponwerke Dinklage & Company, priority 1972, dated 1976).

Counter-ions that a name gives are not always drawn. Like-named read-outs stand apart in the source and are kept apart here.

Take `COc1ccc2c(c1)c(CC(=O)OCC(=O)O)c(C)n2C(=O)c1ccc(Cl)cc1` [sodium salt of I]: in the data set on protein, the “DE50 (concentration inhibiting the level of protein hazing by 50%)” value amounted to 0.07 mg/mL. The “stability/clarity of solution of the sodium salt” value in data set [1] is listed as “the solution remains clear for a considerable period of time”.
As to `COc1ccc2c(c1)c(CC(=O)O)c(C)n2C(=O)c1ccc(Cl)cc1` [sodium salt of the known compound II, reference compound], in data set [1], the “stability/clarity of solution of the sodium salt” value was “almost immediately, a clouding of the solution and the compound II begins to decompose”.
Consider `COc1ccc2c(c1)c(CC(=O)O)c(C)n2C(=O)c1ccc(Cl)cc1` [II, 1-(p-chlorobenzoyl)-5-methoxy-2-methyl-3-indole acetic acid, reference compound], for which the median effective dose (ED50) with kaolin oedema of the paw (Rattus norvegicus, po) worked out at 1.04 mg/kg. In addition, the “inhibition of formalin oedema” value in data set [2] (1.6 mg/kg) was 13.8%. In addition, the “inhibition of carrageenin oedema” value in data set [3] (1.6 mg/kg) is given as 42%. In addition, in the data set on protein, the “DE50 (concentration inhibiting the level of protein hazing by 50%)” value turned out to be 0.13 mg/mL. The “increase in reaction velocity of serum sulphydryl groups” value in [4] was 39-272%. Besides, the median lethal dose (LD50) in [5] was 18.4 mg/kg; in [6], 24.5 mg/kg. Moreover, in data set [7], the “patients in whom therapy had to be discontinued because of the side effects” value was approximately 10%. For the same compound, in data set [8], the side effects result is “neurosensitive disturbances such as headaches, vertigos and concentration difficulties, digestive complaints with loss of appetite, sickness, stomach pains, diarrhoea and, finally, some serious cases of intestinal bleeding, stomach ulcers and, occasionally, neurological deficiency symptoms”.
Take `COc1ccc2c(c1)c(CC(=O)OCC(=O)O)c(C)n2C(=O)c1ccc(Cl)cc1` [I, [1-(p-chlorobenzoyl)-5-methoxy-2-methyl-3-indole]-acetoxyacetic acid]: the ED50 with kaolin oedema of the paw (rat, single oral application, range of confidence (P = 5%): I 0.37 to 0.67, II 0.83 to 1.40) was determined as 0.5 mg/kg. Further, in the data set with kaolin oedema of the paw (rat, single oral, from ED50), the “relative effectiveness I versus II on kaolin oedema” value was “about twice as effective as II”. The “inhibition of formalin oedema” value in [2] (1.5 mg/kg) turned out to be 25%. Moreover, the “inhibition of carrageenin oedema” value in [3] (1.5 mg/kg) amounted to 62%. Also, the “antiphlogistic effect on adjuvant arthritis compared with II” value in the data set with adjuvant arthritis (oral, daily dose 3.5 mg/kg of I versus equimolar 3 mg/kg of II) is on record as “decidedly stronger than that of the equimolar daily dose of 3 mg/kg of II”. Besides, in the data set with adjuvant arthritis (primary and generalised inflammation symptoms), the “inflammation-inhibiting efficiency on adjuvant arthritis” value is “strong inflammation-inhibiting efficiency”. For the same compound, in data set [4], the “increase in reaction velocity of serum sulphydryl groups” value is reported as 105-335%. Also, the “increase of non-protein-bound fraction over II” value in the data set with human albumin was “about 60%”. In addition, in [9], the “detection as an unchanged molecule in the organism” value is given as “can be detected as an unchanged molecule for several hours in the organism” and the “resorption after oral administration” value is “well resorbed after oral administration”. In addition, the LD50 in data set [5] is 55.5 mg/kg. Also, in data set [6], the LD50 was 38.9 mg/kg.

A word on the ED50: it is the midpoint of the dose-response relation. What is called LD50 is the dose expected to kill half of the subjects tested.
